One experiment concerns the target PI3Kδ (Homo sapiens (Human), UniProt O00329). The experiment is described as follows: PI3Kδ enzyme activity inhibition IC50 evaluation assay. The class given is biochemical. Conditions: luminescence, 25 μM ATP, 50 μM PIP2, 2 hrs room temperature. As to the method:
(§1) PI3Kα, PI3Kδ, PI3Kβ and PI3Kγ Enzyme Activity Inhibition IC50 Evaluation Assay
• 1. Buffer preparation: 50 mM HEPES, pH 7.5, 3 mM MgCl2, 1 mM EGTA, 100 mM NaCl, 0.03% CHAPS. • 2. Compound was formulated in 100% DMSO in a concentration gradient, and added to a 384-well plate to a final DMSO concentration of 1%. • 3. PI3Kα, PI3Kδ, PI3Kβ and PI3Kγ enzymes were diluted to an optimum concentration with the following buffer: 50 mM HEPES, pH 7.5, 3 mM MgCl2, 1 mM EGTA, 100 mM NaCl, 0.03% CHAPS, 2 mM DTT, and transferred to a 384-well plate and incubated with the compound for a certain time. • 4. […] For PI3Kβ and PI3Kγ, it was still necessary to further add 10 μL ADP-Glo Detection Reagent, and then equilibrated at room temperature for 30 minutes. • 5. Read Luminescense with FlexStation, and calculate the inhibition rate as the average of two tests.

The next experiment deals with PI3Kα (Homo sapiens (Human), UniProt P42336). Briefly: PI3Kα enzyme activity inhibition IC50 evaluation assay. The class given is biochemical. The conditions noted are these: ratio PI3Kα vs PI3Kδ. As to the method: as §1
Sequence of PI3Kα (P42336 whole entry): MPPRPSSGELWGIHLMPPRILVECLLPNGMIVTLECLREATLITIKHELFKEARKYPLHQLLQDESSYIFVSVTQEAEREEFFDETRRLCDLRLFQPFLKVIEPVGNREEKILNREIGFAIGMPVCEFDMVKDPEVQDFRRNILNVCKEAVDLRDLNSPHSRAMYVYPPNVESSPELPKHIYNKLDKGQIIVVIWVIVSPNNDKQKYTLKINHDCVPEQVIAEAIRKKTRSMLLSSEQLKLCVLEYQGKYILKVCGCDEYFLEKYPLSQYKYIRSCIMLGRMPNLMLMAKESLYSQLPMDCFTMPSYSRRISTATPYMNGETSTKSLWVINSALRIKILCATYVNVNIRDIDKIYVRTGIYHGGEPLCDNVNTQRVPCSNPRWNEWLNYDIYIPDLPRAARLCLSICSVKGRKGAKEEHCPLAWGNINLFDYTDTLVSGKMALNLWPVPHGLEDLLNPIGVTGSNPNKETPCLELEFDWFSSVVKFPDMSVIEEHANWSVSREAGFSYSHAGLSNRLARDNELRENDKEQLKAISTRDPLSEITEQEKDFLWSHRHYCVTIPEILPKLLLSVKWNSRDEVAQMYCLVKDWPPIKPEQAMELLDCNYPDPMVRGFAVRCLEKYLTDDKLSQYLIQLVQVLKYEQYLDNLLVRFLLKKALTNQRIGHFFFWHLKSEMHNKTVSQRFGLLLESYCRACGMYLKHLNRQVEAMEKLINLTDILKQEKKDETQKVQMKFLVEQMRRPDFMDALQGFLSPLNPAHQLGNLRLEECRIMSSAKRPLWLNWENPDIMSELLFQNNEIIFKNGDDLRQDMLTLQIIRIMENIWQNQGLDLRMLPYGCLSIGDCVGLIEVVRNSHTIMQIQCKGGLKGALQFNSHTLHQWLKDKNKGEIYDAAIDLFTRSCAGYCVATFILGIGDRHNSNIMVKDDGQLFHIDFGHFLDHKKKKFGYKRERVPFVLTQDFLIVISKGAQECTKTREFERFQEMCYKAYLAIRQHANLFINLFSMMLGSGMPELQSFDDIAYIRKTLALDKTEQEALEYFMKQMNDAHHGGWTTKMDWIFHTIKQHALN
Sequence of PI3Kα (P27986 whole entry partner): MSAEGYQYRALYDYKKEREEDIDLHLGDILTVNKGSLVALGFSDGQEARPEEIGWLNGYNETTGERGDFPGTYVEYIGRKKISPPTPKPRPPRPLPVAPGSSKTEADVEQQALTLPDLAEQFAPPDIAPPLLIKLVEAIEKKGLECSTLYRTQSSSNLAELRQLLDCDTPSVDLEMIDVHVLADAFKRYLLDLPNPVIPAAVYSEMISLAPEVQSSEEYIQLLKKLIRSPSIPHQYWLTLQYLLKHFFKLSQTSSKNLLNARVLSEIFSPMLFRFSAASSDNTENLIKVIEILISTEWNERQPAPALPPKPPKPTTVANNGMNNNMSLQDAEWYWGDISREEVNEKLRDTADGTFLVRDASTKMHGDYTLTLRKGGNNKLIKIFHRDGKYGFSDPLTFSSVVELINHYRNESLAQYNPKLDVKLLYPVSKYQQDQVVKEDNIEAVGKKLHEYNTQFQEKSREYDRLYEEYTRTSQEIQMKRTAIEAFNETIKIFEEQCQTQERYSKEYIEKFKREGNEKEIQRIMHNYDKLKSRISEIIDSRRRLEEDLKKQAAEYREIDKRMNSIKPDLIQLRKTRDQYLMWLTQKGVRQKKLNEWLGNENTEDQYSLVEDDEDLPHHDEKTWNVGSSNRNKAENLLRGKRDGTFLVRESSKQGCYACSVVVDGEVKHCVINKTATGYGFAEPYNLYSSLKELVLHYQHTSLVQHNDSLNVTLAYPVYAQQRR
• 1. Buffer preparation: 50 mM HEPES, pH 7.5, 3 mM MgCl2, 1 mM EGTA, 100 mM NaCl, 0.03% CHAPS. • 2. Compound was formulated in 100% DMSO in a concentration gradient, and added to a 384-well plate to a final DMSO concentration of 1%. • 3. PI3Kα, PI3Kδ, PI3Kβ and PI3Kγ enzymes were diluted to an optimum concentration with the following buffer: 50 mM HEPES, pH 7.5, 3 mM MgCl2, 1 mM EGTA, 100 mM NaCl, 0.03% CHAPS, 2 mM DTT, and transferred to a 384-well plate and incubated with the compound for a certain time. • 4. Substrate was diluted to an optimum concentration with the following buffer: 50 mM HEPES, pH 7.5, 3 mM MgCl2, 1 mM EGTA, 100 mM NaCl, 0.03% CHAPS, 2 mM DTT, 50 μM PIP2, 25 μM ATP; then added to a 384-well plate to initiate the reaction, and for PI3Kα, PI3Kβ and PI3Kγ at room temperature reacted for 1 hr, for PI3Kδ at room temperature reacted for 2 hrs. For PI3Kβ and PI3Kγ, it was still necessary to further add 10 μL ADP-Glo Detection Reagent, and then equilibrated at room temperature for 30 minutes. • 5. Read Luminescense with FlexStation, and calculate the inhibition rate as the average of two tests.

The structures appear in SMILES notation.

Sequence of PI3Kδ (O00329 whole entry): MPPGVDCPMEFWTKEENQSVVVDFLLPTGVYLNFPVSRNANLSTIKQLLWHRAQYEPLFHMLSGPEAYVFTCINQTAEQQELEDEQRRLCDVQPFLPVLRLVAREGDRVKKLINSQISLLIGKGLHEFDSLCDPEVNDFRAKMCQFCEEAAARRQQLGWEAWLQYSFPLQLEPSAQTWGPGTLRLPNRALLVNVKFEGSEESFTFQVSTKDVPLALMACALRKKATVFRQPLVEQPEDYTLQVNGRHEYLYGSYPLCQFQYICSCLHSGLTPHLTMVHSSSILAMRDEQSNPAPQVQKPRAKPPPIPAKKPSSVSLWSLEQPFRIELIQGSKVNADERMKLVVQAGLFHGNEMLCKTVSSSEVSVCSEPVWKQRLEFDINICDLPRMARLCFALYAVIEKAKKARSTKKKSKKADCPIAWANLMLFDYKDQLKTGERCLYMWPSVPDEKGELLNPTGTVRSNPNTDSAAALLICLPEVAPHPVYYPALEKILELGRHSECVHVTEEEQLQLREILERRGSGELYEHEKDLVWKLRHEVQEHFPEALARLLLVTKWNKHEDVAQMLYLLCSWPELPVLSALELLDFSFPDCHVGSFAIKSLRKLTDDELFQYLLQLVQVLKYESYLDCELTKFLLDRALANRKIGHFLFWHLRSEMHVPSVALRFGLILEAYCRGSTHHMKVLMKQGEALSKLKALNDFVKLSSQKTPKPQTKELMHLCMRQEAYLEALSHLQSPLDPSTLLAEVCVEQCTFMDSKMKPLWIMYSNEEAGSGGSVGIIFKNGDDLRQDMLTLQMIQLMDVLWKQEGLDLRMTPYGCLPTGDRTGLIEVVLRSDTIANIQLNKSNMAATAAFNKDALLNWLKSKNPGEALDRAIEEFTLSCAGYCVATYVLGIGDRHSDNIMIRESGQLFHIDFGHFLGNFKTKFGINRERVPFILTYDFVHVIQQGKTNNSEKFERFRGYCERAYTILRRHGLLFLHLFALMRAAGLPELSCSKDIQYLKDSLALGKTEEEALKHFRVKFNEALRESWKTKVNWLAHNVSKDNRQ
Sequence of PI3Kδ (P27986 whole entry partner): as the sequence (P27986 whole entry partner) above

With `COc1ncc(-c2nc(N3CCOCC3)nc3c(CN4CCNCC4)c(C)sc23)cc1NS(C)(=O)=O` [Compound 96], 31 nM corresponded to half-maximal inhibition against PI3Kδ (IC50). The α/δ selectivity at PI3Kα stood at 64.
Take `COc1ncc(-c2nc(N3CCOCC3)nc3cc(C)sc23)cc1NS(C)(=O)=O` [Compound 97]: the IC50 – broadly, the concentration at which inhibition is half-maximal – on PI3Kδ came out at 190 nM. In addition, the α/δ selectivity on PI3Kα is reported as 10.
For `COc1ncc(-c2nc(N3CCOCC3)nc3c(CN4CCOCC4)c(C)sc23)cc1NS(C)(=O)=O` [Compound 98], in that order: 12 nM and 30.
The like results for `COc1ncc(-c2nc(N3CCOCC3)nc3c(CN4CCC(F)CC4)c(C)sc23)cc1NS(C)(=O)=O` [Compound 105] were, in that order, 31 nM and 77.
For `COc1ncc(-c2nc(N3CCOCC3)nc3c(CN4CCC(=O)CC4)c(C)sc23)cc1NS(C)(=O)=O` [Compound 107], in that order: 11 nM and 45.
At PI3Kδ, `COC(=O)C1CCN(Cc2c(C)sc3c(-c4cnc(OC)c(NS(C)(=O)=O)c4)nc(N4CCOCC4)nc23)CC1` [Compound 111] returned an IC50 of 6.5 nM. For the same compound, the α/δ selectivity on PI3Kα came to 301.
Compound `COc1ncc(-c2nc(N3CCOCC3)nc3c(CN4CCS(=O)(=O)CC4)c(C)sc23)cc1NS(C)(=O)=O` [Compound 113] gave an IC50 against PI3Kδ of 6.6 nM. In addition, the α/δ selectivity on PI3Kα is given as 27.
For `COC(=O)N1CCN(Cc2c(C)sc3c(-c4cnc(OC)c(NS(C)(=O)=O)c4)nc(N4CCOCC4)nc23)CC1` [Compound 114], in that order: 5 nM and 44.
`COc1ncc(-c2nc(N3CCOCC3)nc3c(CN4CCC5(CC4)COC5)c(C)sc23)cc1NS(C)(=O)=O` [Compound 115] displayed an IC50 against PI3Kδ of 13 nM. On PI3Kα, the α/δ selectivity stood at 67.
For `COc1ncc(-c2nc(N3CCOCC3)nc3c(CN4CCn5cnnc5C4)c(C)sc23)cc1NS(C)(=O)=O` [Compound 116], in that order: 4.3 nM and 57.
The like results for `COc1ncc(-c2nc(N3CCOCC3)nc3c(CN4CCC(CO)CC4)c(C)sc23)cc1NS(C)(=O)=O` [Compound 117] were, in that order, 7.2 nM and 213.
For `COc1ncc(-c2nc(N3CCOCC3)nc3c(CN4CCC(C(C)(C)O)CC4)c(C)sc23)cc1NS(=O)(=O)C(F)(F)F` [Compound 118], in that order: 2.6 nM and 92.
`COc1ncc(-c2nc(N3CCOCC3)nc3c(CN4CCN(C(C)(C)CO)CC4)c(C)sc23)cc1NS(C)(=O)=O` [Compound 119] returned an IC50 at PI3Kδ of 5 nM. The α/δ selectivity on PI3Kα came out at 84.
For `Cc1sc2c(-c3cnc(Cl)c(NS(C)(=O)=O)c3)nc(N3CCOCC3)nc2c1CN1CCC(C(C)(C)O)CC1` [Compound 120], in that order: 5 nM and 24.
At PI3Kδ, `CCN(CC)C1CN(Cc2c(C)sc3c(-c4cnc(OC)c(NS(C)(=O)=O)c4)nc(N4CCOCC4)nc23)C1` [Compound 122] had an IC50 of 9 nM. Besides, at PI3Kα, the α/δ selectivity is reported as 172.
At PI3Kδ, `COc1ncc(-c2nc(N3CCOCC3)nc3c(CN4CCC(N5CCCC5)C(F)(F)C4)c(C)sc23)cc1NS(C)(=O)=O` (stereo not drawn) [Compound 123] came in with an IC50 of 6.8 nM. At PI3Kα, the α/δ selectivity worked out at 175.
For `COc1ncc(-c2nc(N3CCOCC3)nc3c(CN4CCC(N5CCC[C@H]5C(F)(F)F)CC4)c(C)sc23)cc1NS(C)(=O)=O` [Compound 124], in that order: 3.1 nM and 430.
For `COc1ncc(-c2nc(N3CCOCC3)nc3c(CN4CCC(N5CCC[C@H]5C)CC4)c(C)sc23)cc1NS(C)(=O)=O` [Compound 125], in that order: 2.6 nM and 239.
For `COc1ncc(-c2nc(N3CCOCC3)nc3c(CN4CCC(N5CCC(F)CC5)CC4)c(C)sc23)cc1NS(C)(=O)=O` [Compound 128], in that order: 6 nM and 223.
Compound `COc1ncc(-c2nc(N3CCOCC3)nc3c(CN4CC[C@H](N5CCCC5)C4)c(C)sc23)cc1NS(C)(=O)=O` [Compound 129] came in with an IC50 at PI3Kδ of 19 nM. Further, on PI3Kα, the α/δ selectivity was 100.
The like results for `COc1ncc(-c2nc(N3CCOCC3)nc3c(CN4CC[C@@H](N5CCCC5)C4)c(C)sc23)cc1NS(C)(=O)=O` [Compound 130] were, in that order, 6.7 nM and 273.
The like results for `COc1ncc(-c2nc(N3CCOCC3)nc3c(CN4CCC(C5CC5)CC4)c(C)sc23)cc1NS(C)(=O)=O` [Compound 131] were, in that order, 6.2 nM and 627.
For `COc1ncc(-c2nc(N3CCOCC3)nc3c(CN4CCC(N5CC=CC5)CC4)c(C)sc23)cc1NS(C)(=O)=O` [Compound 132], in that order: 10 nM and 35.
`COc1ncc(-c2nc(N3CCOCC3)nc3c(CN4CC[C@@H](N5CCC[C@H]5C)C4)c(C)sc23)cc1NS(C)(=O)=O` [Compound 133]: on PI3Kδ, the IC50 came to 7.7 nM. In addition, the α/δ selectivity at PI3Kα came to 185.
The like results for `COc1ncc(-c2nc(N3CCOCC3)nc3c(CN4CC[C@@H](N5CCC[C@@H]5C)C4)c(C)sc23)cc1NS(C)(=O)=O` [Compound 134] were, in that order, 4 nM and 188.
For `COc1ncc(-c2nc(N3CCOCC3)nc3c(CCN4CCCCC4)c(C)sc23)cc1NS(C)(=O)=O` [Compound 135], in that order: 6.3 nM and 226.
The compound `C=C1CCN(Cc2c(C)sc3c(-c4cnc(OC)c(NS(C)(=O)=O)c4)nc(N4CCOCC4)nc23)CC1` [Compound 136] came in with an IC50 against PI3Kδ of 7.8 nM. On PI3Kα, the α/δ selectivity amounted to 268.
The like results for `COc1ncc(-c2nc(N3CCOCC3)nc3c(CN4CCC5(CC4)CC5)c(C)sc23)cc1NS(C)(=O)=O` [Compound 137] were, in that order, 11 nM and 309.
For `COc1ncc(-c2nc(N3CCOCC3)nc3c(CN4CCc5ccccc5C4)c(C)sc23)cc1NS(C)(=O)=O` [Compound 138], in that order: 34 nM and 67.
The like results for `COc1ncc(-c2nc(N3CCOCC3)nc3c(CN4CCC(S(C)(=O)=O)CC4)c(C)sc23)cc1NS(C)(=O)=O` [Compound 139] were, in that order, 3.2 nM and 69.
As for `COc1ncc(-c2nc(N3CCOCC3)nc3c(CN4CCN(C)C(=O)C4)c(C)sc23)cc1NS(C)(=O)=O` [Compound 140], the IC50 against PI3Kδ was 3.2 nM. The α/δ selectivity at PI3Kα stood at 55.
The like results for `COc1ncc(-c2nc(N3CCOCC3)nc3c(CN4CC5CC5C4)c(C)sc23)cc1NS(C)(=O)=O` (stereo not drawn) [Compound 141] were, in that order, 9 nM and 120.
For `COc1ncc(-c2nc(N3CCOCC3)nc3c(CN4CCN(CC(C)(C)O)CC4)c(C)sc23)cc1NS(C)(=O)=O` [Compound 142], in that order: 3.7 nM and 60.
For `COc1ncc(-c2nc(N3CCOCC3)nc3c(CN4CCc5sccc5C4)c(C)sc23)cc1NS(C)(=O)=O` [Compound 143], in that order: 32 nM and 107.
Turning to `COc1ncc(-c2nc(N3CCOCC3)nc3c(CN4CCn5ccnc5C4)c(C)sc23)cc1NS(C)(=O)=O` [Compound 144], the IC50 against PI3Kδ is 3.4 nM. Besides, at PI3Kα, the α/δ selectivity turned out to be 56.
For the compound `COc1ncc(-c2nc(N3CCOCC3)nc3c(CN4CCC(OC(C)C)CC4)c(C)sc23)cc1NS(C)(=O)=O` [Compound 145], half-maximal inhibition at PI3Kδ (IC50) was put at 3.8 nM. The α/δ selectivity at PI3Kα turned out to be 287.
`COc1ncc(-c2nc(N3CCOCC3)nc3c(CN4CCC(N5CC(F)(F)C5)CC4)c(C)sc23)cc1NS(C)(=O)=O` [Compound 146]: on PI3Kδ, the IC50 stood at 2.9 nM. Further, the α/δ selectivity on PI3Kα is on record as 120.
For `COc1ncc(-c2nc(N3CCOCC3)nc3c(CN4CC(C(C)(C)O)C4)c(C)sc23)cc1NS(C)(=O)=O` [Compound 151], in that order: 15 nM and 41.
For `COc1ncc(-c2nc(N3CCOCC3)nc3c(OC4CCOCC4)c(C)sc23)cc1NS(C)(=O)=O` [Compound 152], in that order: 15.6 nM and 12.

The values above are taken from US9745321B2, “Fused pyrimidine compound, intermediate, preparation method therefor, and composition and application thereof” (SHANGHAI YINGLI PHARMACEUTICAL CO., LTD, priority 2013, dated 2017).
